In patent US12291529B2, “Heterocyclic GLP-1 agonists” (Gasherbrum Bio, Inc., priority 2023, dated 2025):
Values after ≈ are worked out from the molar mass of the structure shown.

Tests used:
[1] = Rat IV/PO PK study, Method A; assay type: in vivo, male Sprague Dawley (SD) rats; conditions: for AUC (ng · h/mL)_free form/dose / AUC / Cmax: PO; for AUC (ng · h/mL)_free form/dose: 5 mpk, free form; for half-life / bioavailability / AUC / Cmax: male, Sprague Dawley, plasma; for half-life: 1 mg/kg, elimination half life (IV); for half-life / bioavailability: Method A; for bioavailability: PO vs IV, read-out: Bioavailablility (% F); for AUC / Cmax: *obtained under method 3A
Method: Pharmacokinetics (PK) study was conducted on male Sprague Dawley (SD) rats by two delivery routes intravenous (IV) and/or oral gavage (PO). Rats in IV route (n=3) were free access to food and water. Rats in PO route (n=3) were fasted overnight and fed at 4 hrs post dosing. Test article was formulated in solution (10% solutol HS 15 in saline) for IV route and solution or suspension (10% solutol HS 15 in saline/water) for PO route, respectively. On the day of experiment, test article was administered via vein (e.g. foot dorsal vein) injection (commonly at 1 mg/kg and 5 mL/kg) for IV route or via oral gavage (commonly at 2 or 5 mg/kg and 5 mL/kg) for PO route, respectively. Blood samples were collected via serial bleeding at ˜8 time points from 0.083 to 24 hrs post dose. Approximate 150 μL of blood/time point was collected into K2EDTA tube via tail vein or jugular vein. Blood samples were put on wet ice and centrifuged to obtain plasma samples and plasma samples were submitted to LC-MS/MS for sample analysis. Pharmacokinetics parameters, including elimination half life (t1/2) (IV), area under the curve (AUC) and oral bioavailability (F %), etc. were calculated by non-compartmental model using WinNonlin.

[2] = Rat PO PK study, Method B; assay type: in vivo, male Sprague Dawley (SD) rats; conditions: for rat PK exposure compared with C-5 and C-6: 5 to 100 mg/kg; for rat PK dose proportionality of exposure: free form, same formulation; for AUC / Cmax: male, Sprague Dawley, plasma
Method: Pharmacokinetics (PK) study was conducted on male Sprague Dawley (SD) rats by oral gavage (PO). Rats in PO route (n=3) were free access to food and water. […] On the day of experiment, test article was administered via oral gavage (commonly at 10, 30, or 100 mg/kg, with dose volume as 10 mL/kg). Blood samples were collected via serial bleeding at ˜8 time points from 0.25 to 24 hrs post dose. Approximate 150 μL of blood/time point was collected into KzEDTA tube via tail vein or jugular vein. Blood samples were put on wet ice and centrifuged to obtain plasma samples and plasma samples were submitted to LC-MS/MS for sample analysis. Pharmiacokinetics parameters, including Cmax, and area under the curve (AUC), etc. were calculated by non-compartmental model using WinNonlin.

[3] = Caco-2 permeability / efflux study; assay type: in vitro ADME; conditions: human; for Papp at 2 h, 10 μM: Caco-2, pH 7.4, 10 μM, 37° C., pH 7.4, 0.5% BSA, read-out: Caco-2 Perm; for efflux ratio at 2 h, 10 μM: Caco-2, pH 7.4, Caco-2 efflux ratio
Method: (§1) Incubations with Caco-2 cell monolayers were performed in duplicate in a 96-well Transwell plate. Transport buffer solution (HBSS, 10 mM HEPES, pH 7.4, with 0.5% BSA) containing test article (10 μM), and either the control compounds metoprolol (10 μM), cimetidine (10 μM) and erythromycin (10 μM), was added to appropriate donor wells of the apical or basolateral plate. The transport buffer with DMSO was added to appropriate wells of receiver wells. Following incubation at 37° C. for 2 hours, the cell plates were removed and 50 μL samples from both apical and basolateral sides were transferred into new 96-well plates. Subsequently, 200 μL of acetonitrile containing internal standard was added to all samples to precipitate protein prior to analysis by UPLC-MS/MS. Lucifer yellow was used as a marker to confirm the integrity of the cell monolayers after 2 hours incubation.

GLP-1 Receptor = GLP-1 Receptor (Homo sapiens, UniProt P43220); assay: GLP-1R agonist cAMP stimulation assay (HEK293/GLP1R/CRE-LUC cells, Cisbio cAMP dynamic 2 kit); assay type: cell-based
Procedure, shortened: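 HEK293 cells stably expressing human GLP-1R with CRE-Luc reporter, 1000 cells/well in DPBS with 0.5 mM IBMX and BSA. Cells treated with compound (½-log dilutions) for 30 min at 37 °C. cAMP read by HTRF at 665/615 nm; % activity relative to vehicle and maximal control.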

FaSSIF solubility = assay type: physicochemical; conditions: FaSSIF buffer; for solubility at 4 h: 25 °C, fassif, thermodynamic from solid
Method: Stock solution of test article and control compound (chlorpromazine, astemizole, and phenytoin) were prepared in DMSO at 10 mM. 50 μL each of stock solutions were dried down, followed by reconstitution to 1 mM with FaSSIF buffer in the well. The incubation plate was shaked at 25° C., 1,100 rpm for 4 hours. And then, the samples were filtered by using the vacuum manifold. 10 μL aliquots from each well was transferred to a new 96-well plate and adjust the volume to 80 μL with blank buffer. Using a mixture of H2O and acetonitrile containing internal standard (1:1) to dilute the sample 100-fold, 500-fold and 2,500-fold. The samples are evaluated by LC/MS/MS analysis. All compounds were tested in singlet.

Caco-2 cell monolayers = assay: Caco-2 permeability / efflux study; assay type: in vitro ADME; conditions: 10 μM, 2 hours; for Caco-2 Perm: 37° C., pH 7.4, 0.5% BSA
Method: as §1

[4] = Table 3, HEK293/GLP1R/CRE-LUC cells, 30 min
[5] = 30 mg/kg, 20% solutol HS 15 in water
[6] = 100 mg/kg, 20% solutol HS 15 in water

Chain of GLP-1 Receptor (P43220 24-463, species assumed): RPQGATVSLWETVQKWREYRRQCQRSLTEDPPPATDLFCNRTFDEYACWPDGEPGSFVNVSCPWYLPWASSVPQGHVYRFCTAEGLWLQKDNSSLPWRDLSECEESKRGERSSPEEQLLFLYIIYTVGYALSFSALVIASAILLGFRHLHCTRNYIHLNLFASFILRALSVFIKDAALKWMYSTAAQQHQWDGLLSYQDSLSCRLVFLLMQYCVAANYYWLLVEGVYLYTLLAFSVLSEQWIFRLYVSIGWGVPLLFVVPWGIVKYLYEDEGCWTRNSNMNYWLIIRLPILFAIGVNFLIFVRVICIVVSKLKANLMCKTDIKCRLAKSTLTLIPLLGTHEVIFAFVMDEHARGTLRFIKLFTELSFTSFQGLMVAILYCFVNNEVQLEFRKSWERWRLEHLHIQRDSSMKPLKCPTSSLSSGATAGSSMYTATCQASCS

Row | SMILES | AUC (ng · h/mL)_free form/dose [1] | half-life [1] [h] | bioavailability [1] [%] | AUC ([1]; 5 mg/kg) [ng·h/mL] | Cmax ([1]; 5 mg/kg) [ng/mL] | rat PK exposure compared with C-5 and C-6 [2] | rat PK dose proportionality of exposure [2] | AUC ([2]; 30 mg/kg, 10% solutol HS 15) [ng·h/mL] | Cmax ([2]; 30 mg/kg, 10% solutol HS 15) [ng/mL] | AUC ([2]; 100 mg/kg, 10% solutol HS 15) [ng·h/mL] | Cmax ([2]; 100 mg/kg, 10% solutol HS 15) [ng/mL] | Papp at 2 h, 10 μM [3] [×10⁻⁶ cm/s] | efflux ratio at 2 h, 10 μM [3] | EC50 (GLP-1 Receptor; [4]) [nM] | EC50 (GLP-1 Receptor; Table 4) [nM] | solubility at 4 h (FaSSIF solubility) [µM] | further results
1 | CN=S(=O)(c1ccc(-n2ccn(-c3c4c(nn3-c3cc(C)c(F)c(C)c3)CCN(C(=O)c3cc5cc([C@H]6CCOC(C)(C)C6)ccc5n3[C@@]3(c5noc(=O)[nH]5)C[C@@H]3C)[C@H]4C)c2=O)c(F)c1C)C1CC1 (single isomer, unassigned) [Compound 195] | 9,545/5 mpk ng · h/mL | 4.3 | 14 | 5000 | 774 | higher exposure than C-5 and C-6 | good rat PK dose proportionality from 5 to 100 mg/kg | 51100 | 3910 | 102000 | 7690 | 0.22 | 12 | 0.018 | 0.018 | 7.2 (≈ 6.91 µg/mL) | –
2 | Cc1cc(-n2nc3c(c2-n2ccn(-c4ccc5c(cnn5C)c4F)c2=O)[C@H](C)N(C(=O)c2cc4cc([C@H]5CCOC(C)(C)C5)ccn4c2C2(c4noc(=O)[nH]4)CC2)CC3)cc(C2CC2)c1F [Compound C-6, reference compound] | 4,276/5 mpk ng · h/mL | 3.1 | 47 | 4280 | 744 | – | – | 58800 | 7540 | 86000 | 7480 | 0.16 | 26 | – | 0.0675 | 4.5 (≈ 4.03 µg/mL) | –
3 | CN=S(=O)(c1ccc(-n2ccn(-c3c4c(nn3-c3cc(C)c(F)c(C)c3)CCN(C(=O)c3cc5cc([C@H]6CCOC(C)(C)C6)ccc5n3[C@@]3(c5noc(=O)[nH]5)C[C@@H]3C)[C@H]4C)c2=O)c(F)c1NC)C1CC1 (single isomer, unassigned) [Compound 238] | 4,997/5 mpk ng · h/mL | 4.78 | 25.5 | 7430 | 1060 | higher exposure than C-5 and C-6 | good rat PK dose proportionality from 5 to 100 mg/kg | – | – | – | – | 0.19 | 9.8 | 0.11 | 0.11 | 26 (≈ 25.4 µg/mL) | AUC [2, 5]: 67500 ng·h/mL; Cmax [2, 5]: 4710 ng/mL; AUC [2, 6]: 124000 ng·h/mL; Cmax [2, 6]: 8680 ng/mL
4 | Cc1cc(-n2nc3c(c2-n2ccn(-c4ccc(S5(=O)=NCCC5)cc4)c2=O)[C@H](C)N(C(=O)c2cc4cc(C5CCOCC5)ccc4n2[C@@]2(c4noc(=O)[nH]4)C[C@@H]2C)CC3)cc(C)c1F (single isomer, unassigned) [Compound 143] | – | – | – | – | – | – | – | – | – | – | – | – | – | 0.019 | 0.019 | – | Caco-2 Perm (Caco-2 cell monolayers): 0.12 ×10⁻⁶ cm/s; Efflux (Caco-2 cell monolayers; Caco-2 efflux ratio): 99.3; Solubility (FaSSIF, μM) (FaSSIF solubility; 25° C., 4 hours): 4.98 µM (≈ 4.41 µg/mL)
5 | Cc1cc(-n2nc3c(c2-n2ccn(-c4ccc5c(cnn5C)c4F)c2=O)[C@H](C)N(C(=O)c2cc4cc([C@H]5CCOC(C)(C)C5)ccc4n2[C@@]2(c4noc(=O)[nH]4)C[C@@H]2C)CC3)cc(C)c1F [Compound C-5, reference compound] | – | 8.1 | 36 | – | – | – | plateaued at 10 mg/kg | 13000 | 1010 | – | – | 0.21 | – | – | – | 0.4 (≈ 0.353 µg/mL) | AUC ([1]; 2 mg/kg): 4400 ng·h/mL; Cmax ([1]; 2 mg/kg): 573 ng/mL; AUC ([2]; 10 mg/kg, 10% solutol HS 15): 14500 ng·h/mL; Cmax ([2]; 10 mg/kg, 10% solutol HS 15): 1250 ng/mL
6 | CN=S(=O)(c1ccc(-n2ccn(-c3c4c(nn3-c3cc(C)c(F)c(C)c3)CCN(C(=O)c3cc5cc([C@H]6CCOC(C)(C)C6)ccc5n3[C@@]3(c5noc(=O)[nH]5)C[C@@H]3C)[C@H]4C)c2=O)c(F)c1)C1CC1 (single isomer, unassigned) [Compound 180] | 4,954/5 mpk ng · h/mL | 3 | 28 | 6100 | 1790 | higher exposure than C-5 and C-6 | good rat PK dose proportionality from 5 to 100 mg/kg | 97000 | 8340 | 167000 | 13300 | 0.61 | 5.4 | 0.034 | 0.03 | 30 (≈ 28.4 µg/mL) | –
7 | CCS(=O)(=NC)c1ccc(-n2ccn(-c3c4c(nn3-c3cc(C)c(F)c(C)c3)CCN(C(=O)c3cc5cc([C@H]6CCOC(C)(C)C6)ccc5n3[C@@]3(c5noc(=O)[nH]5)C[C@@H]3C)[C@H]4C)c2=O)c(F)c1 (single isomer, unassigned) [Compound 164] | 6,094/5 mpk ng · h/mL | 2.4 | 29.4 | 9540 | 1880 | higher exposure than C-5 and C-6 | good rat PK dose proportionality from 5 to 100 mg/kg | – | – | – | – | 0.62 | 5.5 | 0.024 | 0.024 | 8.9 (≈ 8.31 µg/mL) | AUC [2, 5]: 66200 ng·h/mL; Cmax [2, 5]: 5400 ng/mL; AUC [2, 6]: 173000 ng·h/mL; Cmax [2, 6]: 11200 ng/mL
8 | Cc1cc(-n2nc3c(c2-n2ccn(-c4ccc(S5(=O)=NCCC5)cc4)c2=O)[C@H](C)N(C(=O)c2cc4cc(C5CCOCC5)ccc4n2[C@@]2(c4noc(=O)[nH]4)C[C@@H]2C)CC3)cc(C)c1F (single isomer, unassigned) [Compound 142] | – | – | – | – | – | – | – | – | – | – | – | – | > 156 | 0.045 | 0.063 | 8.07 (≈ 7.15 µg/mL) | Caco-2 Perm (Caco-2 cell monolayers): < 0.05 ×10⁻⁶ cm/s
